According to US4416871A, “Inhibition by peptides of tolerance to and physical dependence on morphine” (The United States of America as represented by the …, priority 1982, dated 1983):

Assays:
Assay type in all cases: in vivo
morphine-dependent mice [1] = assay: Body temperature, body weight and mortality during 3-day morphine pellet implantation with multiple peptide injections
Description: Male C57B1/6J, Swiss Webster, and ICR mice weighing 26±4 g (SD) were used in these studies.
(§1) The mice were randomly divided into two groups. One received SC injections of water (vehicle) while the other received the peptide under investigation (50 μg/mouse on day one). Two hours later the mice were further subdivided and each subgroup was implanted with placebo or morphine pellets. The injections of vehicle and peptide were repeated 24 and 48 hours after the first injection in their respective groups. Morphine pellets containing 75 mg of morphine free base were implanted subcutaneously (SC) between 10-11 A.M. and were removed 3 days later at the same time. The control animals were implanted with placebo pellets. Body temperature and weight were measured daily at 11 A.M. Temperature was measured using a lubricated rectal probe inserted 2.5 cm into the rectum and measured with a telethermometer (Model 43TA Yellow Springs Instrument Co., Yellow Springs, Ohio).
A similar relationship was found for the loss in body weight. Swiss Webster mice lost 16% and 14% in body weight when receiving Z-Pro-D-Leu or vehicle respectively. The C57B1/6J mice given Z-Pro-D-Leu/morphine lost 14%, while the vehicle/morphine group lost 11% in body weight during this period regardless of peptide or vehicle injections. There was one significant strain difference, i.e. a greater mortality during morphine treatment of C57B1/6J mice ([…], Binomial test).

[2] = Brain levels of morphine, fluorometric; conditions: Swiss Webster mice, third day of morphine treatment, n=6
Description: Brain levels of morphine were measured in mice which received either the peptide or vehicle injections. For these studies mice were also sacrificed on the third day following morphine implantation. The mice were then sacrificed by decapitation, brains were rapidly removed, frozen on dry ice, and stored at -80° C. until assay for morphine content. Brain morphine concentrations were determined fluorometrically (Bhargava, H. N., J. Pharma. Sci., 66, 1044-1045[1977]).

morphine-dependent mice [3] = assay: Analgesia during morphine pellet implantation: jump threshold on electrified grid; conditions: peptide-injected mice receiving morphine
Description: (§2) The level of analgesia was tested on each of the three days of the experiment. This was accomplished by measuring the jump threshold to an increasing electrical current in an electrified grid attached to a BRS/LVE #SGS-004 shock generator/scrambler (Evans, W. D., Phychopharmacol., 2, 318-325[1961]). Mice were tested only once and thereafter discarded from the experiment. When determining the effect of the peptide on overt signs of physical dependence (body temperature and weight) and tolerance (body temperature and analgesia), the peptide or vehicle was injected only once on the third day of the morphine or placebo pellet implantation (25 hours prior to the removal of the pellet).
Inhibition of development of tolerance to and physical dependence upon morphine by Z-Pro-D-Leu. The jump threshold in vehicle-injected, morphine-dependent mice decreased, indicating development of tolerance to the analgesic properties of morphine. Threshold scores were: 4.00±0.18;3.50±0.52; 2.55±0.44; on days 1-3 respectively, (n=6 for each group).

morphine-dependent mice [4] = assay: Abrupt withdrawal after pellet removal: body temperature and body weight for 10 hours (FIG. 1); conditions: Swiss Webster mice, any time point up to 10 hours
Description: FIG. 1 illustrates the inhibition of development of physical dependence (abrupt withdrawal) by Z-Pro-D-Leu. Swiss Webster mice were implanted with either morphine or placebo tablets for a period of 3 days. Following removal of the pellets, body temperature and body weight were followed for 10 hours. Panel (a) represents the change in body temperature: (Δ--Δ) Z-Pro-D-Leu/morphine; (O--O) vehicle/morphine; ( -- ) Z-Pro-D-Leu/placebo; ( -- ) vehicle/placebo. Panel (b) represents the maximal loss in body weight during the same period.
To determine the effects of peptide treatment on the development of physical dependence, the abstinence syndrome was precipitated using the morphine antagonist naloxone (Endo Laboratories Inc., N.Y.) at the appropriate dose (0.1, 0.25, or 0.50 mg/kg) injected intraperitoneally (IP) one hour following removal of morphine and placebo pellets. Pellet removal was performed 24 hours after the last peptide injection. These mice were monitored for changes in body temperature (see above) and body weight at 15 min. intervals for one hour after the naloxone injection. Effects of removing the pellets (withdrawing morphine) were also assessed by utilizing body temperature and weight as physical dependence parameters; however, these measurements were made at 2 hour intervals for 10 hours after the removal of the pellets. […]

morphine-dependent mice [5] = assay: Naloxone-precipitated withdrawal: body temperature and withdrawal signs
Description: as §1
To determine the effects of peptide treatment on the development of physical dependence, the abstinence syndrome was precipitated using the morphine antagonist naloxone (Endo Laboratories Inc., N.Y.) at the appropriate dose (0.1, 0.25, or 0.50 mg/kg) injected intraperitoneally (IP) one hour following removal of morphine and placebo pellets. Pellet removal was performed 24 hours after the last peptide injection. These mice were monitored for changes in body temperature (see above) and body weight at 15 min. intervals for one hour after the naloxone injection. Effects of removing the pellets (withdrawing morphine) were also assessed by utilizing body temperature and weight as physical dependence parameters; however, these measurements were made at 2 hour intervals for 10 hours after the removal of the pellets. Placebo implanted mice were treated in the same manner as the morphine pellet implanted mice.

morphine-dependent mice [6] = assay: Tolerance to hypothermic and analgesic effects of ICV morphine 24 hours after pellet removal; conditions: for Jump Threshold: one hr. after ICV morphine
Description: as §2
Tolerance to hypothermic and analgesic effects of morphine injected intracerebroventricularly (ICV) was assessed 24 hours after the removal of the pellets in mice not injected with naloxone. The ICV injection was 40 μg of morphine sulfate solution in 10 μl volume. Body temperature was recorded prior to and at 10 and 15 min. after injection of morphine. Analgesia was determined one hour after the ICV injection.

morphine-dependent mice [7] = assay: Naloxone-precipitated withdrawal: body temperature and withdrawal signs; remark: listed apart in the source
[8] = C57B1/6J, Z-Pro-D-Leu/morphine, peptide day 3 only, n=6, ICV morphine challenge
[9] = C57B1/6J, Z-Pro-D-Leu/placebo pellets, n=8, ICV morphine challenge
[10] = C57B1/6J, Z-Pro-D-Leu/placebo, peptide day 3 only, n=6, ICV morphine challenge
[11] = Swiss Webster, Z-Pro-D-Leu/morphine pellets, n=15, ICV morphine challenge
[12] = Swiss Webster, Z-Pro-D-Leu/placebo pellets, n=8, ICV morphine challenge

## Z-Pro-D-Leu
morphine-dependent mice [1]; C57B1/6J P=0.32, Swiss Webster P=0.65, Binomial test
  number of deaths, peptide/morphine compared with vehicle/morphine: no difference in the number of deaths
morphine-dependent mice [1]; Swiss Webster mice, morphine pellets, multiple injections of peptide 50 μg/mouse SC, day 3, n=14
  body temperature (X) on the third day of morphine treatment: -1.5 °C
morphine-dependent mice [1]; Swiss Webster or C57B1/6J mice receiving morphine, days 1 and 2
  body temperature on days 1 and 2 versus vehicle: no significant difference in body temperature
[2]
  brain morphine levels: 288 ± 99 µg/g
morphine-dependent mice [3]; day 1
  jump threshold score: 4.07±0.27
morphine-dependent mice [3]; day 2
  jump threshold score: 4.27±0.62
morphine-dependent mice [3]; day 3
  jump threshold score: 4.45±0.64
morphine-dependent mice [4]
  hypothermia and loss of body weight during abstinence, peptide/morphine versus the two control groups: no significant difference
morphine-dependent mice [5]; Table II, peptide 50 μg per mouse, naloxone 0.1 mg/kg
  Withdrawal, % of control (jumping, shakes, diarrhea): 9%
morphine-dependent mice [5]; Table II, peptide 50 μg per mouse, naloxone 0.1 mg/kg, mean ± SD
  Δt, °C. (difference in body temperature just prior to naloxone and 30 min. thereafter): -0.09 ± 0.58 °C
morphine-dependent mice [5]; Table III, dose 50 μg
  Withdrawal, % of control: 9%
  Δt, °C.: -0.09 ± 0.58 °C
morphine-dependent mice [5]; dose-response experiments, Table III
  lowest dose still effective in blocking physical dependence on morphine: 5 μg per mouse
morphine-dependent mice [5]; naloxone-precipitated withdrawal, Tables II and III
  ability to block development of physical dependence on morphine: exhibited activity
morphine-dependent mice [6]; C57B1/6J, Z-Pro-D-Leu/morphine pellets, n=9, ICV morphine challenge
  Δt (15 min.): -2.12 ± 0.52
morphine-dependent mice [6]; C57B1/6J, Z-Pro-D-Leu/morphine pellets, n=9, ICV morphine challenge 24 hrs after pellet removal
  Δt (10 min.): -2.04 ± 0.42
morphine-dependent mice [6]; [8]
  Δt (10 min.): -0.75 ± 0.19
  Δt (15 min.): -1.00 ± 0.16
morphine-dependent mice [6]; C57B1/6J, Z-Pro-D-Leu/morphine, peptide day 3 only, n=6
  Jump Threshold: 2.12 ± 0.34
morphine-dependent mice [6]; [9]
  Δt (10 min.): -1.76 ± 0.33
  Δt (15 min.): -2.19 ± 0.41
morphine-dependent mice [6]; C57B1/6J, Z-Pro-D-Leu/placebo pellets, n=8
  Jump Threshold: 3.79 ± 0.39
morphine-dependent mice [6]; [10]
  Δt (10 min.): -1.85 ± 0.25
  Δt (15 min.): -1.88 ± 0.17
morphine-dependent mice [6]; C57B1/6J, Z-Pro-D-Leu/placebo, peptide day 3 only, n=6
  Jump Threshold: 4.05 ± 0.85
morphine-dependent mice [6]; [11]
  Δt (10 min.): -1.10 ± 0.29
  Δt (15 min.): -1.32 ± 0.34
morphine-dependent mice [6]; Swiss Webster, Z-Pro-D-Leu/morphine pellets, n=15
  Jump Threshold: 4.33 ± 0.54
morphine-dependent mice [6]; [12]
  Δt (10 min.): -1.16 ± 0.30
  Δt (15 min.): -1.48 ± 0.46
morphine-dependent mice [6]; Swiss Webster, Z-Pro-D-Leu/placebo pellets, n=8
  Jump Threshold: 4.18 ± 0.41
morphine-dependent mice [6]; peptide given during chronic morphine treatment
  response to ICV injection of morphine: not significantly different from morphine-naive mice
morphine-dependent mice [6]; peptide given only on the third day of pellet implantation
  response to ICV injection of morphine: did not effectively alter the manifestation of tolerance
morphine-dependent mice [7]; Table III, dose 0.5 μg
  Withdrawal, % of control: 100%
morphine-dependent mice [7]; Table III, dose 5 μg
  Withdrawal, % of control: 25%
  Δt, °C.: -0.05 ± 0.37 °C
morphine-dependent mice [7]; peptide injection only on the third day of morphine treatment
  body temperature response 30 min after naloxone: hypothermic response
morphine-dependent mice [7]; peptide/morphine treatment, multiple injections, naloxone 0.1-0.50 mg/kg IP
  body temperature response 30 min after naloxone: mild hyperthermia
